Inconclusive results and toxic doses are left out. Rule as the data show it: active = T/C of 150% or more; inactive = T/C below 125%.
Tested on: L1210 leukemia ip in BDF1 mice, survival T/C
Assay: NCI In Vivo Anticancer Drug Screen. Data for tumor model L1210 Leukemia (intraperitoneal) in B6D2F1 (BDF1) mice
Conditions: endpoint: mean survival time, higher = longer survival
Method in brief: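 Read-out is survival time, reported as the treated-group measurement over the vehicle-control measurement.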

[1] = dose: 100.0 mg/kg/injection, schedule: Q01DX001 (ip), vehicle: Klucel (hydroxypropylcellulose) (HPC)
[2] = dose: 200.0 mg/kg/injection, schedule: Q01DX001 (ip), vehicle: Klucel (hydroxypropylcellulose) (HPC)
[3] = dose: 100.0 mg/kg/injection, schedule: Q01DX001 (ip), vehicle: other
[4] = dose: 100.0 mg/kg/injection, schedule: Q04DX002 (ip), vehicle: saline with Tween-80
[5] = dose: 200.0 mg/kg/injection, schedule: Q01DX001 (ip), vehicle: other
[6] = dose: 200.0 mg/kg/injection, schedule: Q04DX002 (ip), vehicle: saline with Tween-80
[7] = dose: 400.0 mg/kg/injection, schedule: Q01DX001 (ip), vehicle: other
[8] = dose: 400.0 mg/kg/injection, schedule: Q04DX002 (ip), vehicle: saline with Tween-80
[9] = dose: 50.0 mg/kg/injection, schedule: Q01DX009 (ip), vehicle: Klucel (hydroxypropylcellulose) (HPC)
[10] = dose: 100.0 mg/kg/injection, schedule: Q01DX009 (ip), vehicle: Klucel (hydroxypropylcellulose) (HPC)
[11] = dose: 200.0 mg/kg/injection, schedule: Q01DX009 (ip), vehicle: Klucel (hydroxypropylcellulose) (HPC)
[12] = dose: 100.0 mg/kg/injection, schedule: Q01DX001 (ip), vehicle: carboxymethylcellulose (CMC)
[13] = dose: 200.0 mg/kg/injection, schedule: Q01DX001 (ip), vehicle: carboxymethylcellulose (CMC)
[14] = dose: 400.0 mg/kg/injection, schedule: Q01DX001 (ip), vehicle: carboxymethylcellulose (CMC)
[15] = dose: 100.0 mg/kg/injection, schedule: Q04DX003 (ip), vehicle: Klucel (hydroxypropylcellulose) (HPC)
[16] = dose: 200.0 mg/kg/injection, schedule: Q04DX003 (ip), vehicle: Klucel (hydroxypropylcellulose) (HPC)
[17] = dose: 400.0 mg/kg/injection, schedule: Q04DX003 (ip), vehicle: Klucel (hydroxypropylcellulose) (HPC)
[18] = dose: 400.0 mg/kg/injection, schedule: Q01DX001 (ip), vehicle: Klucel (hydroxypropylcellulose) (HPC)
[19] = dose: 100.0 mg/kg/injection, schedule: Q01DX009 (ip), vehicle: saline with Tween-80
[20] = dose: 100.0 mg/kg/injection, schedule: Q04DX003 (ip), vehicle: saline with Tween-80
[21] = dose: 200.0 mg/kg/injection, schedule: Q01DX009 (ip), vehicle: saline with Tween-80
[22] = dose: 200.0 mg/kg/injection, schedule: Q04DX003 (ip), vehicle: saline with Tween-80
[23] = dose: 400.0 mg/kg/injection, schedule: Q04DX003 (ip), vehicle: saline with Tween-80
[24] = dose: 50.0 mg/kg/injection, schedule: Q01DX009 (ip), vehicle: saline
[25] = dose: 100.0 mg/kg/injection, schedule: Q01DX009 (ip), vehicle: saline
[26] = dose: 100.0 mg/kg/injection, schedule: Q04DX003 (ip), vehicle: saline
[27] = dose: 200.0 mg/kg/injection, schedule: Q01DX009 (ip), vehicle: saline
[28] = dose: 200.0 mg/kg/injection, schedule: Q04DX003 (ip), vehicle: saline
[29] = dose: 100.0 mg/kg/injection, schedule: Q01DX001 (ip), vehicle: saline
[30] = dose: 200.0 mg/kg/injection, schedule: Q01DX001 (ip), vehicle: saline
[31] = dose: 400.0 mg/kg/injection, schedule: Q01DX001 (ip), vehicle: saline
[32] = dose: 50.0 mg/kg/injection, schedule: Q01DX001 (ip), vehicle: carboxymethylcellulose (CMC)
[33] = dose: 400.0 mg/kg/injection, schedule: Q04DX003 (ip), vehicle: saline
[34] = dose: 400.0 mg/kg/injection, schedule: Q01DX009 (ip), vehicle: Klucel (hydroxypropylcellulose) (HPC)
[35] = dose: 50.0 mg/kg/injection, schedule: Q01DX001 (ip), vehicle: saline

Measured: T/C

Nc1ncnc2nc(-c3cccc([N+](=O)[O-])c3)[nH]c12
inactive: dose: 50.0 mg/kg/injection, schedule: Q01DX001 (ip), vehicle: Klucel (hydroxypropylcellulose) (HPC) 100 % of control | [1] 91 % of control | [2] 88 % of control

Brc1cccc(Br)n1
inactive: dose: 50.0 mg/kg/injection, schedule: Q01DX001 (ip), vehicle: other 101 % of control | [3] 121 % of control | [4] 106 % of control | [5] 97 % of control | [6] 93 % of control | [7] 101 % of control | [8] 106 % of control

O=C(OCCBr)c1ccc([N+](=O)[O-])cc1
inactive: [9] 100 % of control | [10] 106 % of control | [11] 97 % of control

Cc1ccc(Nc2cc(C)nc(N)n2)cc1
inactive: dose: 25.0 mg/kg/injection, schedule: Q01DX Z (ip), vehicle: methylcellulose (MC) 90 % of control

CC12CCCC(O)(C1)NC(=O)C2C#N (configuration not stated)
inactive: [12] 102 % of control | [13] 97 % of control | [14] 94 % of control

Cc1noc(/N=C(/C(=N/c2onc(C)c2C)c2ccccc2)c2ccccc2)c1C
inactive: [15] 97 % of control | [16] 103 % of control | [17] 97 % of control

O=C1NC(=O)C2(CCc3ccccc32)N1 (configuration not stated)
inactive: [9] 105 % of control | [10] 100 % of control | [15] 108 % of control | [11] 98 % of control | [16] 100 % of control | [17] 94 % of control

O=[N+]([O-])c1ccc(Cc2ccccn2)cc1
inactive: [1] 104 % of control | [10] 95 % of control | [2] 108 % of control | [11] 101 % of control | [18] 112 % of control

O=C(NC/C(Br)=C/Br)Nc1c(Cl)cccc1Cl
inactive: [1] 94 % of control | [15] 96 % of control | [2] 91 % of control | [16] 89 % of control | [18] 91 % of control | [17] 93 % of control

CCNC(C)(C)C(=O)c1ccc(Cl)s1
inactive: [19] 96 % of control | [20] 100 % of control | [21] 96 % of control | [22] 100 % of control | [23] 98 % of control

Cc1ncc(CCl)c(CCl)c1O
inactive: [24] 95 % of control | [25] 92 % of control | [26] 98 % of control | [27] 97 % of control | [28] 97 % of control

CCCCC(=O)CCl
inactive: [29] 103 % of control | [30] 120 % of control | [31] 114 % of control

CCOC(C)c1ccccc1 (configuration not stated)
inactive: [13] 95 % of control

COc1cc2nc3occc3c(OC)c2c2c1OC(C(C)(C)O)C2 (configuration not stated)
inactive: [32] 98 % of control | [12] 117 % of control | [13] 93 % of control

Nc1ccc2c(c1)C(=O)c1c(F)ccc(F)c1-2
inactive: [32] 98 % of control | [12] 96 % of control | [13] 104 % of control | [14] 115 % of control

Cn1c(N)c(N=Nc2ccc(S(=O)(=O)Nc3nccs3)cc2)c(=O)n(C)c1=O
inactive: [12] 102 % of control | [13] 96 % of control | [14] 90 % of control

CCOC(=O)C(O)(CC)CC
inactive: [25] 96 % of control | [26] 93 % of control | [27] 101 % of control | [28] 93 % of control | dose: 400.0 mg/kg/injection, schedule: Q01DX009 (ip), vehicle: saline 102 % of control | [33] 95 % of control

CNC(=O)N(C)N
inactive: dose: 12.5 mg/kg/injection, schedule: Q01DX009 (ip), vehicle: saline 97 % of control | dose: 25.0 mg/kg/injection, schedule: Q01DX009 (ip), vehicle: saline 95 % of control | [24] 119 % of control

CCON=C1C(C)(C)C(C)(C)C(C)(C)C1(C)C
inactive: [10] 98 % of control | [11] 95 % of control | [34] 96 % of control

CCCCN=C1NC(N)=NC(C)(C)N1
inactive: [1] 98 % of control | [2] 102 % of control

CCN(CC)C(=S)[S][Sn]([S]C(=S)N(CC)CC)([c]1ccccc1)[c]1ccccc1
inactive: [3] 97 % of control | [5] 104 % of control | [7] 112 % of control

O=c1c(-c2ccccc2)c(S)sc(S)c1-c1ccccc1
inactive: dose: 100.0 mg/kg/injection, schedule: Q04DX002 (ip), vehicle: gum acacia 93 % of control | dose: 200.0 mg/kg/injection, schedule: Q04DX002 (ip), vehicle: gum acacia 104 % of control | dose: 400.0 mg/kg/injection, schedule: Q04DX002 (ip), vehicle: gum acacia 93 % of control

O/N=C1/C=C(c2ccccc2)C(O)(c2ccccc2)C1 (configuration not stated)
inactive: [20] 102 % of control | [22] 96 % of control | [23] 93 % of control

Nc1[nH]c(=O)[nH]c(=O)c1N=Nc1ccc(S(=O)(=O)Nc2ncccn2)cc1
inactive: [29] 94 % of control | [30] 98 % of control | [31] 96 % of control

CCCC=C(CCCC)CCCC
inactive: [4] 87 % of control | [6] 94 % of control

O=C(O)c1ccc(C(=O)O)c(O)c1
inactive: [29] 105 % of control | [30] 97 % of control | [31] 94 % of control

CCN(CC)CCOc1ccc(C(=O)/C(=C/c2ccc(OC)cc2)c2ccccc2)cc1
inactive: dose: 100.0 mg/kg/injection, schedule: Q04DX003 (sc), vehicle: olive oil, sesame oil, peanut oil 100 % of control | dose: 200.0 mg/kg/injection, schedule: Q04DX003 (sc), vehicle: olive oil, sesame oil, peanut oil 96 % of control | dose: 400.0 mg/kg/injection, schedule: Q04DX003 (sc), vehicle: olive oil, sesame oil, peanut oil 108 % of control

Cc1nc(OCc2ccccc2)c(C(=O)OCc2ccccc2)nc1C
inactive: [19] 103 % of control | [20] 101 % of control | [21] 97 % of control | [22] 102 % of control | dose: 400.0 mg/kg/injection, schedule: Q01DX009 (ip), vehicle: saline with Tween-80 101 % of control | [23] 98 % of control

O=C(O)C1OC(n2cc(F)c(=O)[nH]c2=O)CC1O (configuration not stated)
inactive: [35] 101 % of control | [29] 101 % of control | [30] 98 % of control | [31] 110 % of control

CCCn1c(=O)cc(/C=N/Nc2ccc([N+](=O)[O-])cc2[N+](=O)[O-])c2ccccc21
inactive: dose: 100.0 mg/kg/injection, schedule: Q01DX001 (ip), vehicle: saline with Tween-80 90 % of control | dose: 200.0 mg/kg/injection, schedule: Q01DX001 (ip), vehicle: saline with Tween-80 90 % of control | dose: 400.0 mg/kg/injection, schedule: Q01DX001 (ip), vehicle: saline with Tween-80 90 % of control

CC(C(N)=O)N1C(=O)C2C3CCC(C3)C2C1=O (configuration not stated)
inactive: [26] 103 % of control | [28] 91 % of control | [33] 86 % of control

c1ccc2c(c1)[nH]c1c[n+]3c(c[n+]12)[nH]c1ccccc13
inactive: [35] 107 % of control | [29] 98 % of control | [30] 113 % of control

O=c1[nH]cncc1CCC1OCCO1
inactive: [25] 98 % of control | [27] 109 % of control

O=S(=O)(Cc1ccc(Cl)cc1)c1ccccc1-n1cccc1
inactive: [15] 90 % of control | [16] 92 % of control | [17] 100 % of control

CC1=CC(C(=O)O)P(C)(=O)C1 (configuration not stated)
inactive: [4] 92 % of control | [8] 88 % of control

OC(C/C(Cc1ccccc1)=N/Nc1ccccc1)(C(F)(F)F)C(F)(F)F
inactive: [10] 94 % of control | [15] 96 % of control | [11] 96 % of control | [16] 88 % of control | [34] 100 % of control | [17] 107 % of control

From PubChem BioAssay AID248 (DTP/NCI, 2004)
